The values that follow come from US9676782B2, “Substituted pyrazolo[1,5-a]pyrazines as negative allosteric modulators of metabotropic glutamate receptor 3” (Vanderbilt University, priority 2014, dated 2017).

As a reminder, the IC50 is the point on the concentration scale where inhibition reaches its midpoint. For orientation: EC50 means the concentration that produces a half-maximal response.

Assay [1] concerns the target rat mGlu5 (Rattus norvegicus (Rat), UniProt P31424). As to the kind of experiment: mGlu5 Ca2+ flux assay. It counts as cell-based. The following applies: for Emax at 30 µM: read-out: rat mGlu5 Glu max (%); for Fold selectivity (mGlu3 vs. mGlu5): ratio of rat mGlu5 EC50 or IC50 to rat mGlu3 IC50. On the procedure: (§1) The cells were grown overnight at 37° C. in the presence of 5% CO2. […] Dye was removed, 20 μL of assay buffer was added, and the plate was incubated for 5 minutes at room temperature. Ca^2+ flux was measured using the Functional Drug Screening System (FDSS7000, Hamamatsu, Japan). […] All test compounds were dissolved and diluted to a concentration of 10 mM in 100% DMSO. […] Calcium fluorescence measures were recorded as fold over basal fluorescence; raw data was then normalized to the maximal response to glutamate. […] The raw data file containing all time points was used as the data source in the analysis template. This was saved by the FDSS as a tab-delimited text file. Data were normalized using a static ratio function (F/F0) for each measurement of the total 360 values per well divided by each well's initial value. […] This is sufficient time to capture the peak amplitude of the cellular calcium response. […] EC50 values for test compounds were generated by fitting the normalized values versus the log of the test compound concentration (in mol/L) using a 4 parameter logistic equation where none of the parameters were fixed. Each of the three values collected at each concentration of test compound were weighted evenly.
For orientation: Calcium flux is commonly read through the fluorescence of an indicator in the cells.

Assay [2] addresses rat mGlu3 (Rattus norvegicus (Rat), UniProt P31422). As to the kind of experiment: mGlu3 Ca2+ flux assay. The following applies: for remaining activity at 30 µM: amplitude of response at 30 μM test compound as % of maximal response to glutamate, read-out: rat mGlu3 Glu max (%); for mGlu3 Glu max: response at 30 μM compound as percentage of maximal glutamate response. It counts as cell-based. The method, then:
as §1, with “for 10” for “for 5”

The mark [3] stands for this setting: NAM potency, decrease of glutamate EC80 response, >30,000 = no measurable activity, >10,000 = no plateau, read-out: rat mGlu3 IC50.
[4] abbreviates: read-out: rat mGlu5 EC50 or IC50.
Where [5] appears, read: PAM, amplitude of response at 30 μM test compound as % of maximal response to glutamate.

Where two headings read alike, the source gives them in different places.

Chain of rat mGlu5 (P31424 21-1203): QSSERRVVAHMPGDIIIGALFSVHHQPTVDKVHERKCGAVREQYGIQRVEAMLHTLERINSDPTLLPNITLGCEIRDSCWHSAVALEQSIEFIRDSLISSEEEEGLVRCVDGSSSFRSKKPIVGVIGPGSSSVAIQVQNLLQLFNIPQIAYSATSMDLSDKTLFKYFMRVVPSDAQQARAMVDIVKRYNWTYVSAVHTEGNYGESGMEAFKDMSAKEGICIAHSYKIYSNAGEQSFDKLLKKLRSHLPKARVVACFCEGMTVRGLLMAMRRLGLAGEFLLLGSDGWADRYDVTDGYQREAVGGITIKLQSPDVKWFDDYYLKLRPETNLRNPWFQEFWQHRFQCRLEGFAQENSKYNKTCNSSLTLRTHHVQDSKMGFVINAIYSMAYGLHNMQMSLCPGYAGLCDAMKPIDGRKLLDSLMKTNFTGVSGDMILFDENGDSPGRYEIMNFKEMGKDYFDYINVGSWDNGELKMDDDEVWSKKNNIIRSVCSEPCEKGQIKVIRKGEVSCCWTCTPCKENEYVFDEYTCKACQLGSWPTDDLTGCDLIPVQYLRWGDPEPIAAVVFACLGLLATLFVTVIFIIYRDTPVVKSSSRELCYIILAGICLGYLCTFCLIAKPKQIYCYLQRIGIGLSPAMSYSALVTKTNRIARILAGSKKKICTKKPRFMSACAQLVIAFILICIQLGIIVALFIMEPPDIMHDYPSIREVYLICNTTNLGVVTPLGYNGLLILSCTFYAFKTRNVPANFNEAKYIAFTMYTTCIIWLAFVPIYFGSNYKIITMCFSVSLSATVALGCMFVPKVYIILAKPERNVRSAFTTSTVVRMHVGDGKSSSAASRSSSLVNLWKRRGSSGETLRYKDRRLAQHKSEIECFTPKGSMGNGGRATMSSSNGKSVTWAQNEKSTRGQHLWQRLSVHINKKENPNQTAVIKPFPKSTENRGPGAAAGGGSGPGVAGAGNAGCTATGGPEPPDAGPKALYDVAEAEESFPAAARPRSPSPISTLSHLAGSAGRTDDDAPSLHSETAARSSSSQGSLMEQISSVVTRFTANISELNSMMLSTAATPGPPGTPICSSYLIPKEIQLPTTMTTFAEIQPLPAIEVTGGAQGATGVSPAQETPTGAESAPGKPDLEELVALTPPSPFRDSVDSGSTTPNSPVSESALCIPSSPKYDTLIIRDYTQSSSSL
Chain of rat mGlu3 (P31422 23-879): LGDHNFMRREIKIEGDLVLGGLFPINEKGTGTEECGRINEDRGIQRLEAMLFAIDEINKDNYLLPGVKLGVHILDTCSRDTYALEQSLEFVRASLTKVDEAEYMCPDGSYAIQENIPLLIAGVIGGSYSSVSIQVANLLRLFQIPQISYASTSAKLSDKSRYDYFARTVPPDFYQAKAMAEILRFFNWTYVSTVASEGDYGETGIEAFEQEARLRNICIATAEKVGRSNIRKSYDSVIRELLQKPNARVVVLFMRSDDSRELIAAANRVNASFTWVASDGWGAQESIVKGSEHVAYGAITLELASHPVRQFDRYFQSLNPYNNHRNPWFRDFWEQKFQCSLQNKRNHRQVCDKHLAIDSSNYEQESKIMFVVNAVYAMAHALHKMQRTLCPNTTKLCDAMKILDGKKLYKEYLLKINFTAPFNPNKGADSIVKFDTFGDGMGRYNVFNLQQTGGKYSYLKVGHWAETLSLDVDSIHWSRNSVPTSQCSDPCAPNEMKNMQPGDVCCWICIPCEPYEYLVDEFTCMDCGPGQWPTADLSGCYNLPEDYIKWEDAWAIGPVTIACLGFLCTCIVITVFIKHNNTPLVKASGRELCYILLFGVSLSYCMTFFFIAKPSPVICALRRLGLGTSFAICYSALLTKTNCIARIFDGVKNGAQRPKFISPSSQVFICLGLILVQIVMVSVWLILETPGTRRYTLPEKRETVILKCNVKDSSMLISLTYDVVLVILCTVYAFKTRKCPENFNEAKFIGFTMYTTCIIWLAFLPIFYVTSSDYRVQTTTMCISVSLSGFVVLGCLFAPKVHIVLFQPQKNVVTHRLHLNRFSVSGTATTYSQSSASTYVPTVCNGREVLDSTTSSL

For `O=C1c2cc(CNc3ccc(F)cn3)nn2CCN1c1ccc(F)cc1` [Compound 155, 5-(4-fluorophenyl)-2-(((5-fluoropyridin-2-yl)amino)methyl)-6,7-dihydropyrazolo[1,5-a]pyrazin-4(5H)-one], the 50% inhibitory concentration (IC50) in assay [1] (compound noted as NAM or partial antagonist (PAnt) at mGlu5, glutamate EC80, read-out: rat mGlu5 EC50 or IC50) was greater than 10 µM; in assay [2] (setting [3]), 1.46 µM. Also, the Emax at 30 µM in assay [1] (compound noted as NAM or partial antagonist (PAnt) at mGlu5, response at 30 μM as % of maximal glutamate response) is 11.3%. Besides, the “Fold selectivity (mGlu3 vs. mGlu5)” value in assay [1] is given as greater than 6.8. Further, the remaining activity at 30 µM in assay [2] was determined as 1.5%.
On to `C[C@@H]1CN(c2ccc(F)cc2)C(=O)c2cc(CNc3ccc(F)c(F)c3)nn21` [Compound 77, (R)-2-(((3,4-difluorophenyl)amino)methyl)-5-(4-fluorophenyl)-7-methyl-6,7-dihydropyrazolo[1,5-a]pyrazin-4(5H)-one], for which, in assay [1], the “Fold selectivity (mGlu3 vs. mGlu5)” value is greater than 19. For the same compound, in assay [1] (setting [4]), the 50% effective concentration (EC50) is greater than 30 µM. Besides, the concentration for half-maximal inhibition (IC50) in assay [2] (setting [3]) came out at 1.57 µM. In assay [2], the remaining activity at 30 µM is 3.77%.
`C[C@H]1CN(c2ccc(F)cc2)C(=O)c2cc(CNc3cccc(Cl)c3)nn21` [Compound 49, (S)-2-(((3-chlorophenyl)amino)methyl)-5-(4-fluorophenyl)-7-methyl-6,7-dihydropyrazolo[1,5-a]pyrazin-4(5H)-one]: in assay [1] (setting [5]), the Emax at 30 µM was 76.5%. In assay [1], the “Fold selectivity (mGlu3 vs. mGlu5)” value is 4.45. Also, in assay [1] (setting [4]), the concentration giving a half-maximal response (EC50) came out at 5.92 µM. For the same compound, the remaining activity at 30 µM in assay [2] is -0.54%. Moreover, the IC50 in assay [2] (read-out: rat mGlu3 IC50) is 1.33 µM.
In the case of `O=C1c2cc(CNc3ccc(OC(F)F)cc3F)nn2CCN1c1ccc(Cl)cn1` [Compound 148, 5-(5-chloropyridin-2-yl)-2-(((4-(difluoromethoxy)-2-fluorophenyl)amino)methyl)-6,7-dihydropyrazolo[1,5-a]pyrazin-4(5H)-one], the “Fold selectivity (mGlu3 vs. mGlu5)” value in assay [1] was greater than 32. For the same compound, in assay [1] (setting [4]), the concentration for a half-maximal effect (EC50) is greater than 30 µM. In addition, the IC50 in assay [2] (setting [3]) was 0.93 µM. Moreover, the remaining activity at 30 µM in assay [2] was determined as 3.97%.
In the case of `C[C@@H]1CN(c2ccc(F)cc2)C(=O)c2cc(CNc3cccc(F)c3)nn21` [Compound 46, (R)-5-(4-fluorophenyl)-2-(((3-fluorophenyl)amino)methyl)-7-methyl-6,7-dihydropyrazolo[1,5-a]pyrazin-4(5H)-one], the Emax at 30 µM in assay [1] (setting [5]) was 24.6%. Moreover, the “Fold selectivity (mGlu3 vs. mGlu5)” value in assay [1] is greater than 8.2. Moreover, the EC50 in assay [1] (setting [4]) was greater than 10 µM. Also, the remaining activity at 30 µM in assay [2] amounted to 0.58%. Moreover, the 50% inhibitory concentration (IC50) in assay [2] (read-out: rat mGlu3 IC50) was 1.21 µM.
Turning to `CN(Cc1cc2n(n1)CCN(c1ccc(F)cc1)C2=O)c1cccc(Cl)c1` [Compound 87, 2-(((3-chlorophenyl)(methyl)amino)methyl)-5-(4-fluorophenyl)-6,7-dihydropyrazolo[1,5-a]pyrazin-4(5H)-one], in assay [1] (setting [5]), the Emax at 30 µM turned out to be 41.9%. Moreover, in assay [1], the “Fold selectivity (mGlu3 vs. mGlu5)” value is listed as greater than 12. Besides, the 50% effective concentration (EC50) in assay [1] (setting [4]) is greater than 10 µM. Further, in assay [2] (setting [3]), the concentration for half-maximal inhibition (IC50) was 0.805 µM. Also, in assay [2], the remaining activity at 30 µM was determined as 0.71%.
As to `COc1ccc(N(C)Cc2cc3n(n2)CCN(c2cccnc2)C3=O)cc1` [Compound 121, 2-(((4-methoxyphenyl)(methyl)amino)methyl)-5-(pyridin-3-yl)-6,7-dihydropyrazolo[1,5-a]pyrazin-4(5H)-one], in assay [1], the “Fold selectivity (mGlu3 vs. mGlu5)” value was greater than 6.3. In addition, in assay [1] (setting [4]), the EC50 was greater than 30 µM. The IC50 in assay [2] (setting [3]) came out at 4.69 µM. Moreover, the remaining activity at 30 µM in assay [2] came out at 0.66%.
`CN(Cc1cc2n(n1)CCN(c1ccc(F)cc1)C2=O)c1ccccc1F` [Compound 83, 5-(4-fluorophenyl)-2-(((2-fluorophenyl)(methyl)amino)methyl)-6,7-dihydropyrazolo[1,5-a]pyrazin-4(5H)-one]: the “Fold selectivity (mGlu3 vs. mGlu5)” value in assay [1] is recorded as greater than 34. Also, in assay [1] (setting [4]), the EC50 was greater than 30 µM. The concentration for half-maximal inhibition (IC50) in assay [2] (setting [3]) was found to be 0.876 µM. Further, the remaining activity at 30 µM in assay [2] was -0.98%.
`C[C@H]1CN(c2ccc(F)cc2)C(=O)c2cc(CNc3ccc(F)c(F)c3)nn21` [Compound 78, (S)-2-(((3,4-difluorophenyl)amino)methyl)-5-(4-fluorophenyl)-7-methyl-6,7-dihydropyrazolo[1,5-a]pyrazin-4(5H)-one]: the Emax at 30 µM in assay [1] (setting [5]) came out at 61.6%. In addition, the “Fold selectivity (mGlu3 vs. mGlu5)” value in assay [1] is greater than 8.5. The EC50 in assay [1] (setting [4]) was greater than 10 µM. In assay [2] (setting [3]), the half-maximal inhibitory concentration (IC50) was determined as 1.17 µM. In addition, the remaining activity at 30 µM in assay [2] was 1.23%.
Regarding `O=C1c2cc(CNc3cc(Cl)ccn3)nn2CCN1c1ccc(F)cc1` [Compound 164, 2-(((4-chloropyridin-2-yl)amino)methyl)-5-(4-fluorophenyl)-6,7-dihydropyrazolo[1,5-a]pyrazin-4(5H)-one], the Emax at 30 µM in assay [1] (setting [5]) stood at 35.3%. Moreover, the “Fold selectivity (mGlu3 vs. mGlu5)” value in assay [1] is given as greater than 7.5. Also, in assay [1] (setting [4]), the half-maximal effective concentration (EC50) is greater than 10 µM. Further, the IC50 in assay [2] (setting [3]) was 1.32 µM. In addition, the remaining activity at 30 µM in assay [2] is 2.99%.
With `O=C1c2cc(CNc3ccc(Cl)cc3F)nn2CCN1c1ccc(F)cc1` [Compound 34, 2-(((4-chloro-2-fluorophenyl)amino)methyl)-5-(4-fluorophenyl)-6,7-dihydropyrazolo[1,5-a]pyrazin-4(5H)-one], the “Fold selectivity (mGlu3 vs. mGlu5)” value in assay [1] was greater than 35. The EC50 in assay [1] (setting [4]) is greater than 30 µM. Also, the IC50 in assay [2] (setting [3]) was 0.856 µM. In addition, in assay [2], the remaining activity at 30 µM turned out to be 3.18%.
On to `Cc1ccccc1NCc1cc2n(n1)[C@@H](C)CN(c1ccc(F)cc1)C2=O` [Compound 45, (S)-5-(4-fluorophenyl)-7-methyl-2-((o-tolylamino)methyl)-6,7-dihydropyrazolo[1,5-a]pyrazin-4(5H)-one], for which the Emax at 30 µM in assay [1] (setting [5]) was 37.1%. Besides, in assay [1], the “Fold selectivity (mGlu3 vs. mGlu5)” value is reported as greater than 2.9. In assay [1] (setting [4]), the EC50 is greater than 10 µM. In assay [2] (setting [3]), the half-maximal inhibitory concentration (IC50) was determined as 3.34 µM. Further, in assay [2], the remaining activity at 30 µM came out at 1.32%.
Regarding `CN(Cc1cc2n(n1)CCN(c1ccc(F)cc1)C2=O)c1ccccc1F` [drawing 30 X = NMe], the concentration giving a half-maximal response (EC50) in assay [1] (Table 2 compounds with X = NMe, read-out: mGlu5 EC50) was greater than 30 µM. Further, in assay [2] (Table 2 compounds with X = NMe, read-out: mGlu3 IC50), the IC50 was found to be 0.876 µM. Moreover, the “mGlu3 Glu max” value in assay [2] (Table 2 compounds with X = NMe) is −1%.
For the compound `COc1ccc(N(C)Cc2cc3n(n2)CCN(c2ccccn2)C3=O)cc1` [Compound 117, 2-(((4-methoxyphenyl)(methyl)amino)methyl)-5-(pyridin-2-yl)-6,7-dihydropyrazolo[1,5-a]pyrazin-4(5H)-one], in assay [1], the “Fold selectivity (mGlu3 vs. mGlu5)” value was greater than 10. In addition, in assay [1] (setting [4]), the half-maximal effective concentration (EC50) is greater than 30 µM. Also, the concentration for half-maximal inhibition (IC50) in assay [2] (setting [3]) is 2.73 µM. For the same compound, the remaining activity at 30 µM in assay [2] came to 1.59%.
As for `O=C1c2cc(CNc3ccccc3F)nn2CCN1c1ccc(F)cc1` [Compound 3, 5-(4-fluorophenyl)-2-(((2-fluorophenyl)amino)methyl)-6,7-dihydropyrazolo[1,5-a]pyrazin-4(5H)-one], the Emax at 30 µM in assay [1] (setting [5]) was determined as 95.7%. Besides, the “Fold selectivity (mGlu3 vs. mGlu5)” value in assay [1] is reported as 2.62. The concentration for a half-maximal effect (EC50) in assay [1] (setting [4]) amounted to 2.47 µM. In addition, in assay [2] (setting [3]), the IC50 came to 0.944 µM. The remaining activity at 30 µM in assay [2] is 1.73%.
As to `O=C1c2cc(CNc3ccc(OC(F)F)cc3F)nn2CCN1c1cc(F)cc(F)c1` [Compound 152, 2-(((4-(difluoromethoxy)-2-fluorophenyl)amino)methyl)-5-(3,5-difluorophenyl)-6,7-dihydropyrazolo[1,5-a]pyrazin-4(5H)-one], the “Fold selectivity (mGlu3 vs. mGlu5)” value in assay [1] was greater than 28. Moreover, in assay [1] (setting [4]), the EC50 is greater than 30 µM. Also, in assay [2] (setting [3]), the half-maximal inhibitory concentration (IC50) came out at 1.07 µM. The remaining activity at 30 µM in assay [2] came to 2.23%.
For the compound `O=C1c2cc(CNc3ccc(F)cc3)nn2CCN1c1ccc(F)cc1` [drawing 32 X = NH], in assay [2] (Table 2 compounds with X = NH, read-out: mGlu3 IC50), the half-inhibitory concentration (IC50) came out at 1.15 µM. In addition, the “mGlu3 Glu max” value in assay [2] (Table 2 compounds with X = NH) turned out to be 2%.
As to `O=C1c2cc(CNc3ccc(Br)cc3)nn2CCN1c1ccc(F)cc1` [Compound 16, 2-(((4-bromophenyl)amino)methyl)-5-(4-fluorophenyl)-6,7-dihydropyrazolo[1,5-a]pyrazin-4(5H)-one], in assay [2] (read-out: rat mGlu3 IC50), the IC50 is greater than 30 µM.
Still for that read-out and setting: the figure for `CC(C)(C)c1ccc(NCc2cc3n(n2)CCN(c2ccc(F)cc2)C3=O)cc1` [Compound 24, 2-(((4-(tert-butyl)phenyl)amino)methyl)-5-(4-fluorophenyl)-6,7-dihydropyrazolo[1,5-a]pyrazin-4(5H)-one] is greater than 30 µM.
